In this test the test system is T cells. Nature of the test: Effect of AHR agonist on Th17 polarization (intracellular IL-17 after PMA/Ionomycin). It is filed as cell-based, human. How it is done:
FIG. 8. T cells were activated with CD3/CD5 (upper) or CD3/ICOS (lower) figure and expanded in presence of standard Th17-polarizing cytokines/antibodies (cytokines package), or with 100 nM FICZ and IL-1B and IL-6. At day 13 cultures were stimulated with PMA/Ionomycin for 4-5 hours before assessment of IL-17A and IL-17F expression. Cytograms show intracellular expression of the cytokines.
Protocol permutation: T cells were activated with DYNABEADS® CD3/CD5, DYNABEADS® CD3/ICOS, or DYNABEADS® CD3/CD28 with equal signal strength and stoichiometry. Th17 polarization was facilitated by addition of i) cytokines (TGF-β, IL-23, IL-6, IL-1B) and αIL-4/α-IFN-γ neutralizing antibodies or ii) the AHR agonist FICZ plus IL-6, IL-1βa. Th17 polarization was assessed by intracellular staining of IL-17 and IFN-γ following PMA/Ionomycin activation of polarized T cells (FIG. 8).

Turning to `O=Cc1c2c(cc3c1=Nc1ccccc1-3)=Nc1ccccc1-2` [FICZ, 6-formylindolo [3,2-b]carbazole], for the setting “100 nM FICZ plus IL-1β and IL-6, CD3/CD5 beads, day 13”, the “Activity on T cells costimulated through CD5” value is reported as “promising activity”. Moreover, the “Activity on T cells costimulated through ICOS” value (100 nM FICZ plus IL-1β and IL-6, CD3/ICOS beads, day 13) is “not”. For the same molecule, where the note is “FICZ, IL-1β and IL-6 protocol”, the “IL-17 producing cells compared to standard polarizing conditions” value was “fewer”.

The values are drawn from patent publication US20250236840A1, “SELECTIVE EXPANSION OF DIFFERENT SUBPOPULATIONS OF T CELLS BY THE ALTERATION OF CELL SURFACING SIGNALS AND SIGNAL RATIO” (LIFE TECHNOLOGIES AS, priority 2015, published 2025).
